The source of these data is patent US20080153858A1, “ANTITUMORIGENIC DRUG COMBINATION” (ABBOTT LABORATORIES, priority 2006, published 2008).

Structures are written as SMILES. Marks after values point to notes of the source that are not given here.

Test [1] deals with thymidine kinase minus human colon carcinoma xenograft (GC3 TK-). The conditions noted are these: Schultz, 1999; cited from earlier work.
Test [2] shares this test system. Briefly: GC3 TK- flank xenograft model, tumor growth delay. Type of test: in vivo, nu/nu mice. As for the experimental part:
nu/nu female mice (Charles Rivers Labs) were injected subcutaneously with 0.2 mL of 5×10^6 GC3TK-100c3 cells (1:1 matrigel) on study day 0. […] The cellular implantation site was the right flank, and all mice were ear tagged. Tumors were size matched to 205 mm^3, and animals were placed into the therapy groups shown in the study design below (Table 3). The tumors were measured with calipers 2 times per week after tumors were palpable. The mice were humanely euthanized when the tumor volumes reached a predetermined size. The study design was as follows: [table]

The subject of test [3] is Calu-6 NSCLC xenograft. Briefly: Calu-6 flank xenograft model, tumor growth delay. Type of test: in vivo, nu/nu mice. The method, then: Female nu/nu mice (Charles River Labs.) were injected subcutaneously with 0.25 mL of 5×10^6 Calu-6 cells (1:1 with matrigel) on study day 0. The human Calu-6 cells were obtained from a tumor homogenate from previously inoculated donor mice. The cellular implantation site was the right thigh, and all mice were ear tagged. On day 10, tumors were size matched to approximately 170 mm^3 and were placed into the therapy groups outlined in the study design below. The tumors were measured with calipers 2-3 times per week after tumors were palpable. Tumor volume were calculated according to the formula V=L×W^2/2 (V: volume, mm^3; L: length, mm. W: width, mm). The mice were humanely euthanized when the tumor volumes reached a predetermined size. The study design was as follows:
ABT-751 was formulated in 1% HCl, 4% ethanol, and 95% D5W while pemetrexed was formulated in normal saline.
Study group treatments are defined in Table 1.

`Nc1nc2[nH]cc(CCc3ccc(C(=O)N[C@@H](CCC(=O)O)C(=O)O)cc3)c2c(=O)[nH]1` [pemetrexed]: the “sensitivity in the thymidine kinase-deficient GC3 model” value in test [1] is recorded as “quite sensitive”. In addition, the “Median % TGD (tumor growth delay) increase compared to vehicle in time to 0.75 cc tumor” value in test [2] (Group 2: pemetrexed 150 mg/kg i.p. Days 38-42, plus ABT-751 vehicle) is reported as 14.8%; in test [2] (Group 3: pemetrexed 150 mg/kg i.p. Days 43-47, plus ABT-751 vehicle) it was 30.7*^b %. Also, the “Mean % TGD (tumor growth delay) increase compared to vehicle in time to 1.5 cc tumor” value was 11.1** % in test [3] (Group 2: pemetrexed 150 mg/kg i.p. Days 10-14 and 20-24, plus ABT-751 vehicle); 5.6* % in test [3] (Group 4: pemetrexed 150 mg/kg i.p. Days 15-19 and 25-29, plus ABT-751 vehicle).

`COc1ccc(S(=O)(=O)Nc2cccnc2Nc2ccc(O)cc2)cc1` [ABT-751, N-(2-((4-Hydroxyphenyl)amino)pyridin-3-yl)-4-methoxybenzenesulfonamide]: the “Median % TGD (tumor growth delay) increase compared to vehicle in time to 0.75 cc tumor” value in test [2] (Group 1: ABT-751 100 mg/kg p.o. Days 38-42 and 48-52, plus pemetrexed vehicle) is reported as 0.0%. The “Mean % TGD (tumor growth delay) increase compared to vehicle in time to 1.5 cc tumor” value in test [3] (Group 1: ABT-751 100 mg/kg p.o. Days 10-14 and 20-24, plus pemetrexed vehicle) is reported as 18.0***^b %; in test [3] (Group 6: ABT-751 100 mg/kg p.o. Days 15-19 and 25-29, plus pemetrexed vehicle), 18.0*** %.
